Measurements reported in patent US20070154457A1, “Use of eIF-5A to kill multiple myeloma cells” (Senesco Technologies, Inc., priority 2005, published 2007).
Starred links: 1 amine or outer side, 2 acyl side, 3 side chain; linkers in the order of their positions; H or OH if unused. Positions of bridges follow the written chain, without caps; N, C: chain ends. Non-standard residues stand in square brackets, D forms with d. Residues, ends and D or L forms follow the SMILES beside them. Chains are numbered I, II in the order given. Actinocin(9to1) = Cc1c2oc3c(C)ccc(C(=O)[*:1])c3nc-2c(C(=O)[*:2])c(N)c1=O; NMeV = CN[C@H](C(=O)O)C(C)C; Sar = CNCC(=O)O

What was measured:
[1] = tested on: A549 lung carcinoma cells; test: Annexin/PI apoptosis by flow cytometry, A549 cells; type: cell-based; details: A549 infected with Ad-eIF5A1; JNK inhibitor II 10 μM, U1026 10 μM, Pifithrin-a 30 μM
Protocol: A549 lung carcinoma cells were infected with either an adenovirus expressing LacZ (Lac) or eIF5A1 (5A). Four hours after infection, the media was replaced with media containing either DMSO, 10 μM of the p38 inhibitor SB203580 (Calbiochem), 10 μM of the JNK inhibitor II (Calbiochem), 10 μM of the MEK inhibitor U1026 (Calbiochem), or 30 μM of the p53 inhibitor Pifithrin-a (Calbiochem). Forty-eight hours later, the cells were harvested and the percentage of cells undergoing apoptosis was determined by Annexin/PI staining (BD Bioscience) followed by analysis by flow cytometry.

eIF5A1 [2] = test: Indirect immunofluorescence localization of eIF5A1 in HT-29 cells; type: cell-based, human
Protocol: HT-29 cells were cultured on poly-L-lysine-coated glass coverslips. Subconfluent cells were incubated for 16 hours with 200 Units of interferon gamma (IFN-γ; Roche Applied Science) followed by TNF-α (100 ng/ml; Leinco Technologies) for times varying from 10 minutes to 8 hours. Alternatively, cells were treated with 1.0 μg/ml Actinomycin D for increasing lengths of time from 30 minutes to 16 hours. The treated cells were fixed with 3% formaldehyde (methanol-free; Polysciences Inc.) for 20 minutes, washed twice for 5 minutes with PBS and once for 5 minutes with PBS containing 100 mM glycine, and permeabilized with 0.2% Triton X-100 in PBS for 4 minutes. Cells were then labeled for immunofluorescence using a standard protocol. The primary antibody was anti-eIF5A (BD Transduction Laboratories; mouse IgG) incubated at a dilution of 1:250 for 1 hour. The secondary antibody was anti-mouse IgG-AlexaFluor 488 (Molecular Probes) used at a dilution of 1:200 for 1 hour. Following antibody labeling, the nuclei were stained with Hoescht 33258, and the labeled cells were observed by fluorescent microscopy.

eIF5A1 [3] = test: 2-D gel electrophoresis and Western blot of eIF5A1 forms in HT-29 cells; type: cell-based, human; details: HT-29, beginning 1 hour after treatment, disappearing 24 hours after treatment
Protocol: For 2-D gel electrophoresis, HT-29 cell lysate was harvested in cold lysis buffer (7M Urea, 2M Thiourea, 30 mM Tris, 4% CHAPS, protease inhibitor cocktail), sonicated and cleared of debris by centrifugation. Protein concentration was determined using the Bradford method. The first dimensional isolelectric focusing was performed with the Ettan IPGphor Isoelectric Focusing System (Amersham Biosciences) according to the manufacture's instruction. Immobiline DryStrips (7 cm pH 4-7; Amersham Biosciences) were rehydrated in rehydration buffer (8M Urea, 2% CHAPS, 0.2% DTT, 0.5% pH 4-7 IPG buffer, 0.002% Bromophenol blue) along with cell lysate at room temperature for 12 hours. The isoelectric focusing was performed at 500 V for 30 min, 1000 V for 30 min, and 5000 V for 1 hour and 40 min. The protein on the IPG strip gel was then separated by SDS-PAGE and transferred to a PVDF membrane (Amersham Biosciences). Western blotting was performed using eIF5A antibody (BD Biosciences).

eIF5A1 [4] = test: Western blot of eIF5A1 expression in normal colon fibroblasts; type: cell-based; details: 0.5 μg/ml, 24 hours
Protocol: Protein for Western blotting was isolated using boiling lysis buffer [2% SDS, 50 mM Tris-HCl (pH 7.4)]. Protein concentrations were determined using the Bicinchoninic Acid Kit (Sigma). For Western blotting, 5 μg of total protein was fractionated on a 12% SDS-polyacrylamide gel and transferred to a polyvinylidene difluoride membrane. The primary antibodies used were anti-eIF5A (BD Transduction Laboratories; mouse IgG) and anti-β-actin (Oncogene; mouse IgM), both at a dilution of 1:20,000 in 5% milk. The secondary antibodies were anti-mouse IgG conjugated to horseradish peroxidase (HRP; Sigma) and anti-mouse IgM-HRP (Oncogene). Antibody-protein complexes were visualized using the enhanced chemiluminescence method (ECL, Amersham Biosciences). Following detection of eIF5A, the blots were stripped according to the protocol provided by the ECL Plus Western blotting detection system and reprobed with anti-β-actin antibody to confirm equal loading.

p53 = test: Western blot of p53 and phosphorylated p53 in A549 cells; type: cell-based; details: A549, inhibitor added 4 hours after infection (U1026 10 μM, Pifithrin-a 30 μM)
Protocol: (§1) Western blotting of lysate from A549 cells used for MAPK/SAPK pathway analysis was performed using lysate collected in MAPK lysis buffer (10 mM Tris-pH 7.4, 2% SDS, 10% glycerol). Ten micrograms of lysate was separated on 10% SDS-PAGE gels and transferred to a PVDF membrane. The membrane was blocked for one hour in 5% non-fat skim milk in PBS, washed with PBS and incubated with primary antibody at 1:1000 in 5% BSA/PBS-T overnight at 4° C. with shaking. The MAPK/SAPK antibodies (P-p38, p38, P-JNK, JNK, P-ERK, ERK, p90RSK) were purchased from Cell Signaling. The p53 antibodies used in the A549 study were also obtained from Cell Signaling and used in a similar fashion.
A549 lung carcinoma cells were infected with either an adenovirus expressing LacZ (Lac) or eIF5A1 (5A). Four hours after infection, the media was replaced with media containing either DMSO, 10 μM of the p38 inhibitor SB203580 (Calbiochem), 10 μM of the JNK inhibitor II (Calbiochem), 10 μM of the MEK inhibitor U1026 (Calbiochem), or 30 μM of the p53 inhibitor Pifithrin-a (Calbiochem). Forty-eight hours later, the cells were treated with EGF for 30 minutes and the cell lysate was harvested. Western blots were performed on the lysate using antibodies directed against either total p53 (p53), or p53 phosphorylated on serine 15 [P-p53(ser15)], or p53 phosphorylated on 37 [P-p53(ser37)].

[5] = tested on: MAPK/SAPK signaling pathways; test: Western blot of MAPK/SAPK pathway activation in A549 cells; type: cell-based; details: A549 infected with Ad-eIF5A1 or Ad-eIF5A1(K50A), with MEK1 inhibitor
Protocol: as §1
HT-29 cells were infected with 3000 infectious units per cell and experiments with A549 cells were performed using 1500 infectious units per cell.

HT-29 cells = test: XTT and BrdU cell proliferation assays of HT-29 cells (siRNA, GC7); type: cell-based, human; details: 50 μM for 72 hours, BrdU incorporation
Protocol: HT-29 cells were transfected with siRNA on 96-well plates using Lipofectamine 2000 (Invitrogen). Metabolic activity of proliferating cells was measured with the XTT Cell Proliferation Kit (Roche Applied Science). The BrdU Cell Proliferation Kit (Roche Applied Science) was used to measure DNA synthesis following the manufacturer's protocol. For XTT assays performed following adenovirus infection, 5000 cells were plated per well in a 96-well plate. The next day cells were infected with Ad-lacZ, Ad-eIF5A1 and Ad-eIF5A1(K50A) (Ad-eIF5A1M) respectively with untreated cells as negative control and Actinomycin D treated cell as positive control. XTT substrate was added and A475 nm was measured with A690 nm as the reference.

O=C1c2ccccc2-c2n[nH]c3cccc1c23 [JNK inhibitor II]
effect of inhibitor on apoptosis induced by eIF5A1 [1]: increases apoptosis

Cc1c2oc3c(C)ccc(C(=O)N[C@@H]4C(=O)N[C@H](C(C)C)C(=O)N5CCC[C@H]5C(=O)N(C)CC(=O)N(C)[C@@H](C(C)C)C(=O)O[C@@H]4C)c3nc-2c(C(=O)N[C@@H]2C(=O)N[C@H](C(C)C)C(=O)N3CCC[C@H]3C(=O)N(C)CC(=O)N(C)[C@@H](C(C)C)C(=O)O[C@@H]2C)c(N)c1=O [Actinomycin D] (I: T[dV]P[Sar][NMeV] / II: T[dV]P[Sar][NMeV]; ester I:1-I:C, II:1-II:C; linker I:N-II:N via Actinocin(9to1))
time to shift of eIF5A1 from cytoplasmic to nuclear localization (eIF5A1 [2]): ≤ 90 min | deoxyhypusinated form of eIF5A1 (eIF5A1 [3]): increase in the presence of the deoxyhypusinated form of eIF5A1 | eIF5A1 protein expression (eIF5A1 [4]): up-regulated

N#CC(=C(/N)Sc1ccccc1N)/C(C#N)=C(/N)Sc1ccccc1N [U1026]
effect of inhibitor on Ad-eIF5A1-induced accumulation and phosphorylation of p53 (p53): inhibited | effect of inhibitor on apoptosis induced by eIF5A1 [1]: increases apoptosis | activation of JNK [5]: inhibited the activation of JNK | p38 activation [5]: increased p38 activation

N=C(N)NCCCCCCCN [GC7, N1-guanyl-1,7-diaminoheptane]
effect on the growth of the cells (HT-29 cells): profound effect on the growth

Pifithrin-a
effect of inhibitor on Ad-eIF5A1-induced accumulation and phosphorylation of p53 (p53): inhibited | effect of inhibitor on apoptosis induced by eIF5A1 [1]: decreases apoptosis
